Source: patent publication US11174271B2, “6-membered uracil isosteres” (CV6 Therapeutics (NI) Limited, priority 2016, dated 2021)
Values belong to the compound of their own block, whether it stands above or below them.

What was measured:
[1] = tested on: colorectal (HCT116 and SW620) cell line models; assay: MTS growth inhibition assay; format: cell-based; conditions: increasing concentrations of 5-FU between 0 and 100 μmol/L; both colorectal cancer cell lines
Protocol: The Cell Titer AQueous MTS assay (Promega) is carried out according to the manufacturers guidelines. […] The combination effect is determined by the combination index (CI) method utilizing Calcusyn software (Biosoft, Ferguson, Mo.). Fraction affected (FA) is calculated from the percent growth inhibition: FA=[…]. CI values <1, synergism; 1-1.2, additive and >1.2, antagonism.
Test compounds are evaluated for their antitumor activity in colorectal cancer cells using the MTS growth inhibition assay. HCT116 and SW620 cells are exposed to increasing concentrations of each agent for 72 hours and growth inhibition is directly compared to vehicle-treated controls. The NSCLC cell lines A549 and H1299 are exposed to increasing concentrations of each agent for 72 hours and growth inhibition is directly compared to vehicle-treated controls.
MTS growth inhibition assays are performed to evaluate the effectiveness of the test compounds alone and in combination with the fluoropyrimidine thymidylate synthase (TS) inhibitor 5-fluorouracil (5-FU) at inhibiting the growth of colorectal (HCT116 and SW620) cell line models. […] Simultaneous treatment with increasing concentrations of 5-FU and a test compound at fixed concentrations of 25 μmol/L is determined.

[2] = target: T1, recombinant human deoxyuridine nucleotidohydrolase (dUTPase) (Homo sapiens, UniProt P33316); assay: fluorescence-based dUTPase inhibition assay (DNA polymerase-based dUTP detection); format: biochemical; conditions: 5 ng recombinant dUTPase, 50 pmols dUTP, 37° C. for 8 mins
T1 construct: made in house
T1 sequence (P33316 1-164 isoform P33316-2): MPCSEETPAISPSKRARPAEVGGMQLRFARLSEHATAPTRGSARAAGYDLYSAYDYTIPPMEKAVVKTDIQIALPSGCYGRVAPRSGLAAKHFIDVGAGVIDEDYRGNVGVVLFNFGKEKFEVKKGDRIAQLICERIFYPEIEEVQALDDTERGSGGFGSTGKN

[3] = target: T1, recombinant human deoxyuridine nucleotidohydrolase (dUTPase); assay: as above; format: biochemical; conditions: mean across three concentrations, typically 100, 50 and 25 μmol/L, compared to the in-run positive control
Text: Recombinant human deoxyuridine nucleotidohydrolase (dUTPase) is expressed and purified as described in Ladner R D, Carr S A, Huddleston M J, McNulty D E, Caradonna S J. J Biol Chem. 1996 Mar. 29; 271(13):7752-7. All drugs stocks are aliquoted and diluted as appropriate prior to use. The oligonucelotide primer, templates and fluorophore- and quencher-labeled detection probes are synthesized by Integrated DNA Technologies (Coralville, Iowa), subjected to polyacrylamide gel electrophoresis purification and reconstituted in Omnipur sterile nuclease-free water (EMD Chemicals USA, Gibbstown N.J.) at a stock concentration of 100 μmol/L. The two non-emissive (dark) quenching molecules incorporated into the detection probes include the Iowa black fluorescein quencher (IBFQ; absorption max 531 nm) and ZEN (non-abbreviation; absorption max 532 nm). The fluorescent label utilized is 6-FAM (5′-carboxyfluorescein; excitation max.=494 nm, emission max.=520 nm). Probes are further diluted to a working stock of 10 μmol/L and aliquoted to avoid repeated freeze/thaw cycles. AmpliTaq Gold DNA Polymerase, GeneAmp 10×PCR Buffer 2, MgCl2 and MicroAmp Optical 96-well Reaction Plates are purchased from Applied Biosystems (Carlsbad, Calif.). dNTPs are purchased individually at stock concentrations of 100 mmol/L from New England Biolabs at HPLC-certified >99% purity (Ipswich, Mass.).
Reaction mixtures contained primer, probe and template at an equimolar final concentration of 0.4 μmol/L. Magnesium chloride (MgCl2) is included at a final concentration of 2 mmol/L. Non-limiting dNTPs are included in the reaction mix in excess at a final concentration of 100 μmol/L (dUTP/dTTP is excluded). AmpliTaq Gold DNA polymerase is added at 0.875 U/reaction, 2.5 μl of 10×PCR buffer 2 added and nuclease-free ddH2O added to a final reaction volume of 25 μl. For dUTP inhibition analysis, the volume of ddH2O is further modified to accommodate an additional 1 μl of dUTPase (10 ng/μl) and 1 μl of inhibitor or DMSO control. Thermal profiling and fluorescence detection is performed using a customized thermal program on board a Roche Lightcycler LC480 Instrument II. For analysis of dNTPs, the thermal profile consisted of an 8 min 37° C. step followed by a 10 min 95° C. step to ‘hot-start’ the Taq polymerase and a primer extension time of up to 30 min at 60° C. Raw fluorescence spectra for 6-FAM is measured at specified time intervals to follow assay progression on board a Roche LightCycler 480 Software Version 1.5 and exported and analyzed in Microsoft Excel (Microsoft, Redmond Wash.) and Prism (GraphPad Software, La Jolla Calif.). Fluorescence values for blank reactions (limiting dNTP omitted) are subtracted to give normalized fluorescence units (NFU) to account for background fluorescence.
Test compounds were screened in a fluorescence-based assay. The assay employed a DNA polymerase-based approach utilizing an oligonucleotide template with 3 distinct regions: a 3′ primer binding region, a mid-template dUTP/thymidine triphosphate (TTP) detection region and a 5′ 6-[…] (FAM)-labeled probe binding region that incorporates a black hole quenching moiety. During the reaction, the probe and primer hybridize to the oligonucleotide template to form the template:primer:probe complex. When Taq polymerase binds to the primer in the TPP complex and dUTP is present, successful extension of the nascent strand occurs and the inherent 5′ to 3′ exonuclease activity of Taq polymerase cleaves and displaces the 6-FAM-labeled probe in a 5′ to 3′ direction, releasing the 6-FAM fluorophore from its proximity to the […]. This displacement effectively disrupts the Förster resonance energy transfer (FRET) and the resulting fluorescence detected upon excitation is directly proportional to the amount of the dUTP available in the assay for incorporation. […]

[4] = tested on: colorectal (HCT116), breast (MCF-7) and non-small cell lung (H1299, A549, H358 and H460) cell line models; assay: Colony forming assay; format: cell-based; conditions: increasing concentrations of FUdR between 0.5 and 2.5 μmol/L; all cell lines evaluated
Protocol: Colony forming assay showing the ability of colon (SW620, HCT116), non-small cell lung (A549, H460, H1299 and H358) and breast (MCF7) cancer cells to survive and proliferate following transient 24 hour exposure to test compounds, FUdR and combinations are determined. Specifically, cells are seeded at densities between 50 and 100 cells/well in 24-well plates. […] After 24 hours, drug is removed, cells are rinsed and allowed to outgrow for 10-14 days. At the conclusion of the outgrowth, cells are fixed in 60% ice cold methanol and stained with 0.1% crystal violet, scanned and counted. Data is presented as percentage of untreated controls (mean±SD). Fraction affected and combination indexes are calculated according to the method of Chou and Talalay where <1 is indicative of a synergistic drug interaction.
Colony forming assays are performed to evaluate the effectiveness of test compounds alone and in combination with the fluoropyrimidine thymidylate synthase (TS) inhibitor fluorodeoxyuridine (FUdR) at reducing cancer cell viability in colorectal (HCT116), breast (MCF-7) and non-small cell lung (H1299, A549, H358 and H460) cell line models. […] In colorectal cancer cells, concentrations of test compounds ranging e.g., from 3.1 μmol/L to 50 μmol/L are combined with 0.5 μmol/L FUdR in HCT116 cells and 1 μmol/L FUdR in SW620 cells.

SMILES: O=c1[nH]cc(F)c(=O)[nH]1 [Example 5-FU, 5-fluorouracil]
- growth inhibition [1]: dose-dependent increases in growth inhibition

- IC50 [2]: 500 nM
- % relative inhibition vs. positive control [3]: 149%
SMILES: C[C@@H](NS(=O)(=O)CCCOCN1CCC(=O)NC1=O)c1cccc(OC2CCCC2)c1 [Example 93, (R)—N-(1-(3-(cyclopentyloxy)phenyl)ethyl)-3-((2,4-dioxotetrahydropyrimidin-1(2H)-yl)methoxy)propane-1-sulfonamide]

SMILES: O=c1[nH]c(=O)n([C@H]2C[C@H](O)[C@@H](CO)O2)cc1F [FUdR, fluorodeoxyuridine]
- colonies formed [4]: dose-dependent decreases in colonies formed
